For three molecules, EC50 results are on record in article PMC6768771 (Current cancer drug targets, 2019).

Holding throughout (assay): Cell viability assay
Holding throughout (format): cell-based

Test [1] relates to NCI-H1573 cells. To be noted: Homo sapiens, NCI-H1573, 48 h, read-out: EC50 at 48 h.
For test [2], the system named is NCI-H1563 cells. Conditions: Homo sapiens, NCI-H1563, 48 h, read-out: EC50 at 48 h.
Test [3] concerns NCI-H1299 cells. Conditions: Homo sapiens, NCI-H1299, 48 h, read-out: EC50 at 48 h.
Test [4] has as its system NCI-H661 cells. Conditions: Homo sapiens, NCI-H661, 48 h, read-out: EC50 at 48 h.
Test [5] has as its system A549 cells. To be noted: Homo sapiens, A549, 48 h, read-out: EC50 at 48 h.
For test [6], the system named is NCI-H460 cells. To be noted: Homo sapiens, NCI-H460, 48 h, read-out: EC50 at 48 h.

A value given as a limit tells only on which side of the number the result lay.

For `C#Cc1cccc(Nc2ncnc3cc(OCCOC)c(OCCOC)cc23)c1` [Erlotinib], the EC50 in test [1], in test [2], in test [3], in test [4], in test [5] and in test [6] was above 200 µM in each case.
As to `CC(=O)O[C@@]12CO[C@@H]1C[C@H](O)[C@@]1(C)C(=O)[C@H](O)C3=C(C)[C@@H](OC(=O)[C@H](O)[C@@H](NC(=O)OC(C)(C)C)c4ccccc4)C[C@@](O)([C@@H](OC(=O)c4ccccc4)[C@H]21)C3(C)C` [Docetaxel], the EC50 in test [1] is above 200 µM; in test [2], 80 µM; in test [3], 72 µM; in test [4], above 200 µM; in test [5], above 200 µM; in test [6], 56 µM.
As to `CC(=O)O[C@H]1C(=O)[C@@]2(C)[C@H]([C@H](OC(=O)c3ccccc3)[C@]3(O)C[C@H](OC(=O)[C@H](O)[C@@H](NC(=O)c4ccccc4)c4ccccc4)C(C)=C1C3(C)C)[C@]1(OC(C)=O)CO[C@@H]1C[C@@H]2O` [Paclitaxel], the concentration for a half-maximal effect (EC50) is above 200 µM in test [1]; above 200 µM in test [2]; 60 µM in test [3]; 11 µM in test [4]; above 200 µM in test [5]; 26 µM in test [6].

In general, EC50 refers to the concentration at which the effect is half-maximal.
